From patent US10500166B2, “Methods for the treatment of erectile dysfunction using fispemifene” (QUATRX PHARMACEUTICALS, priority 2007, dated 2019) come the findings set out here.

The experiment deals with estradiol. In words: Phase I repeated dose study 101-50202: serum estradiol. In kind it is in vivo, human. The source says:
Fispemifene has been studied in two phase I studies in humans—in a single dose and a repeated dose study. Effect of fispemifene on hormone levels was one main focus of the repeated dose study. The phase I repeated dose study (number 101-50202) was a randomized, double-blind, placebo-controlled 28-day dose-escalation study performed in 31 healthy, elderly men, aged 50-68 years. The main objective of the study was to investigate the tolerability, safety and pharmacokinetics of fispemifene after repeated oral doses, but the study focused also on the effects of fispemifene on serum free and total testosterone, estradiol, and other relevant hormones. The fispemifene doses 10, 30, 100 and 300 mg per day and placebo were administered once every morning as capsules containing 10 mg or 100 mg of fispemifene, or placebo.
The variables for safety and tolerability were adverse events, vital signs, 12-lead ECG, clinical laboratory evaluations, physical examination, ultrasound examinations (mammary glands) and inhibin B. For pharmacokinetics, the concentrations of fispemifene and its metabolite(s) were to be evaluated. For pharmacodynamics, serum concentrations of FSH, LH, estradiol, testosterone, SHBG, prolactin, aldosterone, cortisol and TSH before and during treatment were measured and compared with the concentrations in the placebo-group.

`OCCOCCOc1ccc(/C(=C(/CCCl)c2ccccc2)c2ccccc2)cc1` [Fispemifene, (Z)-2-{2-[4-(4-Chloro-1,2-diphenylbut-1-enyl)phenoxy]ethoxy}ethanol]: the “Serum estradiol, Mean” value is on record as 106.2 pmol/L (10 mg/day, Baseline); 94.7 pmol/L (10 mg/day, Day 8); 81.7 pmol/L (10 mg/day, Day 15); 116.6 pmol/L (10 mg/day, Day 22); 75.0 pmol/L (10 mg/day, Day 28); 97.8 pmol/L (30 mg/day, Baseline). Also, the “Serum estradiol, Mean” value is listed as 105.6 pmol/L (30 mg/day, Day 8); 102.4 pmol/L (30 mg/day, Day 15); 99.6 pmol/L (30 mg/day, Day 22); 87.0 pmol/L (30 mg/day, Day 28); 84.3 pmol/L (100 mg/day, Baseline); 108.3 pmol/L (100 mg/day, Day 8). Moreover, the “Serum estradiol, Mean” value by setting is: (100 mg/day, Day 15) 111.5 pmol/L; (100 mg/day, Day 22) 106.3 pmol/L; (100 mg/day, Day 28) 94.5 pmol/L; (300 mg/day, Baseline) 102.5 pmol/L; (300 mg/day, Day 8) 104.0 pmol/L; (300 mg/day, Day 15) 97.8 pmol/L. The “Serum estradiol, Mean” value turned out to be 95.5 pmol/L (300 mg/day, Day 22) and 89.7 pmol/L (300 mg/day, Day 28).
